# Measured values reported in ChEMBL document CHEMBL5154832, “Design, Synthesis, and Proof-of-Concept of Triple-Site Inhibitors against Aminoacyl-tRNA Synthetases” (J Med Chem, 2022).
# Molecular target: T1, Threonine--tRNA ligase (Salmonella enterica, UniProt A0A3F3IEK2)
# T1 sequence (A0A3F3IEK2 whole entry): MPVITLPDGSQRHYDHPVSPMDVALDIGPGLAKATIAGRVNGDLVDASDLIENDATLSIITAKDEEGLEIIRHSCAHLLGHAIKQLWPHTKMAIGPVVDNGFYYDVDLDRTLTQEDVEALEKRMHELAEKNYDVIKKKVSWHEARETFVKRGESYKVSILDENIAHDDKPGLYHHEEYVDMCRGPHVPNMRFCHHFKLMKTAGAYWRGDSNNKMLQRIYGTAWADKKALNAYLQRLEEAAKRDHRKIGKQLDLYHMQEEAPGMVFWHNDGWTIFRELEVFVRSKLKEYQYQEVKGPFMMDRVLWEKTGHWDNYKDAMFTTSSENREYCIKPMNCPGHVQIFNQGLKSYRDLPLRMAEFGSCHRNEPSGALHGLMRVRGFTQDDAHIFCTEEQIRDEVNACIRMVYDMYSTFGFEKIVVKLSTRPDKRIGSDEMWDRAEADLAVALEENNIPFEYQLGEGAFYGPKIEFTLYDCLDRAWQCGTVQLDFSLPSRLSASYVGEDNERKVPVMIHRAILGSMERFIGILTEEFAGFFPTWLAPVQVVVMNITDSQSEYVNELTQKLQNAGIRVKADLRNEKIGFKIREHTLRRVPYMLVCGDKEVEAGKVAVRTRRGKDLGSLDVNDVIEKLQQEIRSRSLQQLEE
# Experiment: Binding affinity to full length recombinant salmonella enterica threonyl-tRNA synthetase assessed as dissociation constant in presence of tRNA Leucine by isothermal titration calorimetry assay
row,Structure (SMILES),Kd
1,C[C@@H](O)[C@H](N)C(=O)N[C@@H](CNC(=O)CCn1cnc2cc(Cl)c(Cl)cc2c1=O)c1cccc(-c2ccc3c(c2)CNC3=O)c1,36.8 nM

# Test system: Staphylococcus aureus
# Experiment: Antibacterial activity against Staphylococcus aureus ATCC 29213 strain assessed as inhibition of bacterial growth incubated for 8 hrs by CLSI protocol based microdilution assay
# Format: functional
row,Structure (SMILES),MIC
1,C[C@@H](O)[C@H](N)C(=O)NCC=CCn1cnc2cc(Cl)c(Cl)cc2c1=O,≥ 128 µg/mL
2,C[C@@H](O)[C@H](N)C(=O)N[C@@H](CNC(=O)CCn1cnc2cc(Cl)c(Cl)cc2c1=O)c1cccc(-c2ccc3c(c2)CNC3=O)c1,≥ 128 µg/mL
3,C[C@@H](O)[C@H](N)C(=O)N[C@@H](CNC(=O)CCn1cnc2cc(Cl)c(Cl)cc2c1=O)c1cccc(-c2ccc(C(F)(F)F)cc2)c1,2 µg/mL

# Test system: Pseudomonas aeruginosa
# Experiment: Antibacterial activity against Pseudomonas aeruginosa ATCC27853 strain assessed as inhibition of bacterial growth incubated for 8 hrs by CLSI protocol based microdilution assay
# Format: functional
row,Structure (SMILES),MIC
1,C[C@@H](O)[C@H](N)C(=O)NCC=CCn1cnc2cc(Cl)c(Cl)cc2c1=O,≥ 128 µg/mL
2,C[C@@H](O)[C@H](N)C(=O)N[C@@H](CNC(=O)CCn1cnc2cc(Cl)c(Cl)cc2c1=O)c1cccc(-c2ccc3c(c2)CNC3=O)c1,≥ 128 µg/mL
3,C[C@@H](O)[C@H](N)C(=O)N[C@@H](CNC(=O)CCn1cnc2cc(Cl)c(Cl)cc2c1=O)c1cccc(-c2ccc(C(F)(F)F)cc2)c1,4 µg/mL

# Test system: Salmonella enterica
# Experiment: Antibacterial activity against Salmonella enterica 87 strain assessed as inhibition of bacterial growth incubated for 8 hrs by CLSI protocol based microdilution assay
# Format: functional
row,Structure (SMILES),MIC
1,C[C@@H](O)[C@H](N)C(=O)NCC=CCn1cnc2cc(Cl)c(Cl)cc2c1=O,64 µg/mL
2,C[C@@H](O)[C@H](N)C(=O)N[C@@H](CNC(=O)CCn1cnc2cc(Cl)c(Cl)cc2c1=O)c1cccc(-c2ccc3c(c2)CNC3=O)c1,≥ 128 µg/mL
3,C[C@@H](O)[C@H](N)C(=O)N[C@@H](CNC(=O)CCn1cnc2cc(Cl)c(Cl)cc2c1=O)c1cccc(-c2ccc(C(F)(F)F)cc2)c1,≥ 128 µg/mL

# Molecular target: T1, Threonine--tRNA ligase
# Experiment: Binding affinity to full length recombinant salmonella enterica threonyl-tRNA synthetase assessed as dissociation constant in presence of L-threonine by isothermal titration calorimetry assay
row,Structure (SMILES),Kd
1,C[C@@H](O)[C@H](N)C(=O)N[C@@H](CNC(=O)CCn1cnc2cc(Cl)c(Cl)cc2c1=O)c1cccc(-c2ccc3c(c2)CNC3=O)c1,290 nM

# Test system: Escherichia coli
# Experiment: Antibacterial activity against Escherichia coli acraB strain assessed as inhibition of bacterial growth incubated for 8 hrs by CLSI protocol based microdilution assay
# Format: functional
row,Structure (SMILES),MIC
1,C[C@@H](O)[C@H](N)C(=O)NCC=CCn1cnc2cc(Cl)c(Cl)cc2c1=O,64 µg/mL
2,C[C@@H](O)[C@H](N)C(=O)N[C@@H](CNC(=O)CCn1cnc2cc(Cl)c(Cl)cc2c1=O)c1cccc(-c2ccc3c(c2)CNC3=O)c1,≥ 128 µg/mL
3,C[C@@H](O)[C@H](N)C(=O)N[C@@H](CNC(=O)CCn1cnc2cc(Cl)c(Cl)cc2c1=O)c1cccc(-c2ccc(C(F)(F)F)cc2)c1,8 µg/mL

# Molecular target: T1, Threonine--tRNA ligase
# Experiment: Inhibition of recombinant salmonella enterica threonyl-tRNA synthetase assessed as reduction in enzyme activity incubated for 20 min by Kinase Glo luminescence assay
row,Structure (SMILES),IC50
1,C[C@@H](O)[C@H](N)C(=O)N[C@@H](CNC(=O)CCn1cnc2cc(Cl)c(Cl)cc2c1=O)c1cccc(-c2ccc3c(c2)CNC3=O)c1,19 nM
2,C[C@@H](O)[C@H](N)C(=O)N[C@@H](CNC(=O)CCn1cnc2cc(Cl)c(Cl)cc2c1=O)c1cccc(-c2ccc(C(F)(F)F)cc2)c1,580 nM

# Molecular target: T1, Threonine--tRNA ligase
# Experiment: Binding affinity to full length recombinant salmonella enterica threonyl-tRNA synthetase assessed as dissociation constant in presence of glycine by isothermal titration calorimetry assay
row,Structure (SMILES),Kd
1,C[C@@H](O)[C@H](N)C(=O)N[C@@H](CNC(=O)CCn1cnc2cc(Cl)c(Cl)cc2c1=O)c1cccc(-c2ccc3c(c2)CNC3=O)c1,44.4 nM

# Molecular target: T2, Threonine--tRNA ligase (Salmonella enterica) (UniProt A0A3F3IEK2)
# T2 sequence (whole entry): T1 sequence (A0A3F3IEK2 whole entry)
# Experiment: Binding affinity to recombinant salmonella enterica threonyl-tRNA synthetase assessed as change in melting temperature at 0.1 mM by fluorescence-based thermal shift assay
row,Structure (SMILES),ΔTm
1,C[C@@H](O)[C@H](N)C(=O)NCC=CCn1cnc2cc(Cl)c(Cl)cc2c1=O,17.6 °C
2,C[C@@H](O)[C@H](N)C(=O)N[C@@H](CNC(=O)CCn1cnc2cc(Cl)c(Cl)cc2c1=O)c1cccc(-c2ccc3c(c2)CNC3=O)c1,33.6 °C
3,C[C@@H](O)[C@H](N)C(=O)N[C@@H](CNC(=O)CCn1cnc2cc(Cl)c(Cl)cc2c1=O)c1cccc(-c2ccc(C(F)(F)F)cc2)c1,25.9 °C

# Molecular target: T1, Threonine--tRNA ligase
# Experiment: Binding affinity to full length recombinant salmonella enterica threonyl-tRNA synthetase assessed as dissociation constant in presence of tRNA Threonine by isothermal titration calorimetry assay
row,Structure (SMILES),Kd
1,C[C@@H](O)[C@H](N)C(=O)N[C@@H](CNC(=O)CCn1cnc2cc(Cl)c(Cl)cc2c1=O)c1cccc(-c2ccc3c(c2)CNC3=O)c1,166 nM

# Molecular target: T1, Threonine--tRNA ligase
# Experiment: Binding affinity to full length recombinant salmonella enterica threonyl-tRNA synthetase assessed as dissociation constant in presence of ATP by isothermal titration calorimetry assay
row,Structure (SMILES),Kd
1,C[C@@H](O)[C@H](N)C(=O)N[C@@H](CNC(=O)CCn1cnc2cc(Cl)c(Cl)cc2c1=O)c1cccc(-c2ccc3c(c2)CNC3=O)c1,75.1 nM

# Test system: Staphylococcus aureus
# Experiment: Antibacterial activity against Staphylococcus aureus MRSA R3708 strain assessed as inhibition of bacterial growth incubated for 8 hrs by CLSI protocol based microdilution assay
# Format: functional
row,Structure (SMILES),MIC
1,C[C@@H](O)[C@H](N)C(=O)NCC=CCn1cnc2cc(Cl)c(Cl)cc2c1=O,≥ 128 µg/mL
2,C[C@@H](O)[C@H](N)C(=O)N[C@@H](CNC(=O)CCn1cnc2cc(Cl)c(Cl)cc2c1=O)c1cccc(-c2ccc3c(c2)CNC3=O)c1,≥ 128 µg/mL
3,C[C@@H](O)[C@H](N)C(=O)N[C@@H](CNC(=O)CCn1cnc2cc(Cl)c(Cl)cc2c1=O)c1cccc(-c2ccc(C(F)(F)F)cc2)c1,4 µg/mL

# Molecular target: T2, Threonine--tRNA ligase (Salmonella enterica)
# Experiment: Inhibition of recombinant salmonella enterica threonyl-tRNA synthetase assessed as reduction in enzyme activity at 10 uM incubated for 20 min by Kinase Glo luminescence assay relative to control
row,Structure (SMILES),inhibition
1,C[C@@H](O)[C@H](N)C(=O)NCC=CCn1cnc2cc(Cl)c(Cl)cc2c1=O,45%
2,C[C@@H](O)[C@H](N)C(=O)N[C@@H](CNC(=O)CCn1cnc2cc(Cl)c(Cl)cc2c1=O)c1cccc(-c2ccc3c(c2)CNC3=O)c1,> 99%
3,C[C@@H](O)[C@H](N)C(=O)N[C@@H](CNC(=O)CCn1cnc2cc(Cl)c(Cl)cc2c1=O)c1cccc(-c2ccc(C(F)(F)F)cc2)c1,> 99%

# Molecular target: T1, Threonine--tRNA ligase
# Experiment: Binding affinity to full length recombinant salmonella enterica threonyl-tRNA synthetase assessed as dissociation constant by isothermal titration calorimetry assay
row,Structure (SMILES),Kd
1,C[C@@H](O)[C@H](N)C(=O)N[C@@H](CNC(=O)CCn1cnc2cc(Cl)c(Cl)cc2c1=O)c1cccc(-c2ccc3c(c2)CNC3=O)c1,35.4 nM

# Test system: Salmonella enterica
# Experiment: Antibacterial activity against Salmonella enterica 87 strain assessed as inhibition of bacterial growth incubated in M9 medium for 8 hrs by CLSI protocol based microdilution assay
# Format: functional
row,Structure (SMILES),MIC
1,C[C@@H](O)[C@H](N)C(=O)NCC=CCn1cnc2cc(Cl)c(Cl)cc2c1=O,16 µg/mL

# Test system: Escherichia coli
# Experiment: Antibacterial activity against Escherichia coli ATCC 25922 strain assessed as inhibition of bacterial growth incubated for 8 hrs by CLSI protocol based microdilution assay
# Format: functional
row,Structure (SMILES),MIC
1,C[C@@H](O)[C@H](N)C(=O)NCC=CCn1cnc2cc(Cl)c(Cl)cc2c1=O,≥ 128 µg/mL
2,C[C@@H](O)[C@H](N)C(=O)N[C@@H](CNC(=O)CCn1cnc2cc(Cl)c(Cl)cc2c1=O)c1cccc(-c2ccc3c(c2)CNC3=O)c1,≥ 128 µg/mL
3,C[C@@H](O)[C@H](N)C(=O)N[C@@H](CNC(=O)CCn1cnc2cc(Cl)c(Cl)cc2c1=O)c1cccc(-c2ccc(C(F)(F)F)cc2)c1,≥ 128 µg/mL

# Test system: Enterococcus faecalis
# Experiment: Antibacterial activity against Enterococcus faecalis ATCC 29212 strain assessed as inhibition of bacterial growth incubated for 8 hrs by CLSI protocol based microdilution assay
# Format: functional
row,Structure (SMILES),MIC
1,C[C@@H](O)[C@H](N)C(=O)NCC=CCn1cnc2cc(Cl)c(Cl)cc2c1=O,64 µg/mL
2,C[C@@H](O)[C@H](N)C(=O)N[C@@H](CNC(=O)CCn1cnc2cc(Cl)c(Cl)cc2c1=O)c1cccc(-c2ccc3c(c2)CNC3=O)c1,≥ 128 µg/mL
3,C[C@@H](O)[C@H](N)C(=O)N[C@@H](CNC(=O)CCn1cnc2cc(Cl)c(Cl)cc2c1=O)c1cccc(-c2ccc(C(F)(F)F)cc2)c1,4 µg/mL
